pIC50: −log10 of the molar value. Like-named read-outs stand apart in the source and are kept apart here.
Target: T1, CCR2 receptor (Homo sapiens, UniProt P41597)
T1 construct: expressed in transfected cells
Experiment: compound-induced calcium activity on FLIPR Tetra in HEK-Gqi5 cells stably expressing CCR2
Assay type: cell-based
Experimental: HEK-Gqi5 cells stably expressing CCR2 were cultured in (DMEM high glucose, 10% FBS, 1% PSA, 400 μg/ml geneticin and 50 μg/ml hygromycin. Appropriate positive control chemokines (MCP-1, MIP1A or RANTES) was used as the positive control agonist for screening compound-induced calcium activity assayed on the FLIPR^Tetra. The drug plates were prepared in 384-well microplates using the EP3 and the MultiPROBE robotic liquid handling systems. Compounds were synthesized and tested for CCR2 activity.

[1] = CCR2 receptor, HEK-Gqi5 cells stably expressing CCR2, calcium FLIPR Tetra
[2] = CCR2 receptor, HEK-Gqi5 cells stably expressing CCR2, calcium FLIPR Tetra, read-out: IC50

T1 sequence (P41597 whole entry): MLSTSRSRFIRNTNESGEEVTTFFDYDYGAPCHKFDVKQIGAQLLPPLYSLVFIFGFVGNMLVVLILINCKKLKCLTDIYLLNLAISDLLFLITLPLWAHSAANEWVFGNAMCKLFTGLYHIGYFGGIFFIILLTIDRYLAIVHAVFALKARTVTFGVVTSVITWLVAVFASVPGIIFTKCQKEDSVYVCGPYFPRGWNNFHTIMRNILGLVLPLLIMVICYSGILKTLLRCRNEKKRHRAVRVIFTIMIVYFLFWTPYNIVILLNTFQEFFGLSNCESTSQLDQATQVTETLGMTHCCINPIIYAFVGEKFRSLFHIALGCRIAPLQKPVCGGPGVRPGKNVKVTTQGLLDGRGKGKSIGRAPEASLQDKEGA

| Structure (SMILES) | % ANTAGONISM [1] | pIC50 [2] | pIC50 |
| --- | --- | --- | --- |
| O=C(O)c1ccccc1[S+]([O-])c1ncc(Cl)cc1NS(=O)(=O)c1cc2ccccc2o1 (centres unmarked) [Compound 50, 2-({3-[(1-benzofuran-2-ylsulfonyl)amino]-5-chloropyridin-2-yl}sulfinyl)benzoic acid] | 5% | 5.71 | – |
| Cc1ncccc1COc1ncc(Cl)cc1NS(=O)(=O)c1cc2ccccc2o1 [Compound 33, N-{5-chloro-2-[(2-methylpyridin-3-yl)methoxy]pyridin-3-yl}-1-benzofuran-2-sulfonamide] | 102% | 6.60 | – |
| Cc1ncccc1Oc1ncc(Cl)cc1NS(=O)(=O)c1cc2ccccc2o1 [Compound 24, N-{5-chloro-2-[(2-methylpyridin-3-yl)oxy]pyridin-3-yl}-1-benzofuran-2-sulfonamide] | 90% | 7.47 | – |
| Cc1cnc([S+]([O-])Cc2ccccc2)c(NS(=O)(=O)c2cc3ccccc3o2)c1 (centres unmarked) [Compound 22, N-[2-(benzylsulfinyl)-5-methylpyridin-3-yl]-1-benzofuran-2-sulfonamide] | 103% | 7.60 | – |
| Cc1cnc([S+]([O-])c2ccccc2)c(NS(=O)(=O)c2cc3ccccc3o2)c1 (centres unmarked) [Compound 45, N-[5-methyl-2-(phenylsulfinyl)pyridin-3-yl]-1-benzofuran-2-sulfonamide] | 105% | 6.34 | – |
| O=S(=O)(Nc1cc(F)cnc1SCc1ccccc1)c1cc2ccccc2o1 [Compound 15, N-[2-(benzylsulfanyl)-5-fluoropyridin-3-yl]-1-benzofuran-2-sulfonamide] | 94% | 6.90 | – |
| COC(=O)c1ccccc1CS(=O)(=O)c1ncc(Cl)cc1NS(=O)(=O)c1cc2ccccc2o1 [Compound 38, methyl 2-[({3-[(1-benzofuran-2-ylsulfonyl)amino]-5-chloropyridin-2-yl}sulfonyl)methyl]benzoate] | 97% | 6.74 | – |
| O=C(O)c1ccccc1CS(=O)(=O)c1ncc(Cl)cc1NS(=O)(=O)c1cc2ccccc2o1 [Compound 39, 2-[({3-[(1-benzofuran-2-ylsulfonyl)amino]-5-chloropyridin-2-yl}sulfonyl)methyl]benzoic acid] | 32% | 5.57 | – |
| O=S(=O)(Nc1cc(Cl)cnc1[S+]([O-])Cc1cccnc1)c1cc2ccccc2o1 (centres unmarked) [Compound 5, N-{5-chloro-2-[(pyridin-3-ylmethyl)sulfinyl]pyridin-3-yl}-1-benzofuran-2-sulfonamide] | 99% | 6.70 | – |
| O=C(O)c1ccccc1CS(=O)(=O)c1ncccc1NS(=O)(=O)c1cc2ccccc2o1 [Compound 61, 2-[({3-[(1-benzofuran-2-ylsulfonyl)amino]pyridin-2-yl}sulfonyl)methyl]benzoic acid] | 57% | – | – |
| O=S(=O)(Cc1cccnc1)c1ncc(Cl)cc1NS(=O)(=O)c1cc2ccccc2o1 [Compound 6, N-{5-chloro-2-[(pyridin-3-ylmethyl)sulfonyl]pyridin-3-yl}-1-benzofuran-2-sulfonamide] | 84% | 5.67 | – |
| O=S(=O)(Nc1cc(Cl)cnc1S(=O)(=O)c1ccccc1)c1cc2ccccc2o1 [Compound 31, N-[5-chloro-2-(phenylsulfonyl)pyridin-3-yl]-1-benzofuran-2-sulfonamide] | 105% | 7.77 | – |
| Cc1cnc(S(=O)(=O)Cc2ccccc2)c(NS(=O)(=O)c2cc3ccccc3o2)c1 [Compound 23, N-[2-(benzylsulfonyl)-5-methylpyridin-3-yl]-1-benzofuran-2-sulfonamide] | 96% | 7.92 | – |
| Nc1cccc(CS(=O)(=O)c2ncccc2NS(=O)(=O)c2cc3ccccc3o2)c1 [Compound 14, N-{2-[(3-aminobenzyl)sulfonyl]pyridin-3-yl}-1-benzofuran-2-sulfonamide] | 102% | 7.15 | – |
| CC(C)(C)OC(=O)Nc1cccc(CS(=O)(=O)c2ncccc2NS(=O)(=O)c2cc3ccccc3o2)c1 [Compound 13, tert-butyl {3-[({3-[(1-benzofuran-2-ylsulfonyl)amino]pyridin-2-yl}sulfonyl)methyl]phenyl}carbamate] | 102% | 6.30 | – |
| COC(=O)c1ccccc1CSc1ncc(Cl)cc1NS(=O)(=O)c1cc2ccccc2o1 [Compound 35, methyl 2-[({3-[(1-benzofuran-2-ylsulfonyl)amino]-5-chloropyridin-2-yl}sulfanyl)methyl]benzoate] | 91% | 5.37 | – |
| O=S(=O)(Nc1cccnc1SCc1ccccc1)c1cc2ccccc2o1 [Compound 8, N-[2-(benzylthio)pyridin-3-yl]-1-benzofuran-2-sulfonamide] | 80% | 5.52 | – |
| O=C(c1ccccc1)c1ncc(Cl)cc1NS(=O)(=O)c1cc2ccccc2o1 [Compound 29, N-[5-chloro-2-(phenylcarbonyl)pyridin-3-yl]-1-benzofuran-2-sulfonamide] | 100% | 7.44 | – |

| Structure (SMILES) | % ANTAGONISM [1] | pIC50 [2] | pIC50 |
| --- | --- | --- | --- |
| O=S(=O)(Cc1ccccc1)c1ncccc1NS(=O)(=O)c1cc2ccccc2o1 [Compound 10, N-[2-(benzylsulfonyl)pyridin-3-yl]-1-benzofuran-2-sulfonamide] | 95% | 7.80 | – |
| O=S(=O)(Nc1cc(Cl)cnc1[S+]([O-])c1ccccc1)c1cc2ccccc2o1 (centres unmarked) [Compound 32, N-[5-chloro-2-(phenylsulfinyl)pyridin-3-yl]-1-benzofuran-2-sulfonamide] | 99% | 8.15 | – |
| Cc1cnc(SCc2ccccc2)c(NS(=O)(=O)c2cc3ccccc3o2)c1 [Compound 21, N-[2-(benzylsulfanyl)-5-methylpyridin-3-yl]-1-benzofuran-2-sulfonamide] | 80% | 6.71 | – |
| O=C(O)c1ccccc1C[S+]([O-])c1ncc(Cl)cc1NS(=O)(=O)c1cc2ccccc2o1 (centres unmarked) [Compound 43, 2-[({3-[(1-benzofuran-2-ylsulfonyl)amino]-5-chloropyridin-2-yl}sulfinyl)methyl]benzoic acid] | 90% | – | – |
| O=C(O)c1cccc(Sc2ncc(Cl)cc2NS(=O)(=O)c2cc3ccccc3o2)c1 [Compound 48, 3-({3-[(1-benzofuran-2-ylsulfonyl)amino]-5-chloropyridin-2-yl}sulfanyl)benzoic acid] | 96% | 6.10 | – |
| Nc1cccc(CSc2ncccc2NS(=O)(=O)c2cc3ccccc3o2)c1 [Compound 11, N-{2-[(3-aminobenzyl)sulfanyl]pyridin-3-yl}-1-benzofuran-2-sulfonamide] | 99% | 6.99 | – |
| O=C1CCN(C(=O)c2ncc(Cl)cc2NS(=O)(=O)c2cc3ccccc3o2)CC1 [Compound 28, N-{5-chloro-2-[(4-oxopiperidin-1-yl)carbonyl]pyridin-3-yl}-1-benzofuran-2-sulfonamide] | 105% | – | 7.62 |
| O=C(O)c1ccccc1Oc1ncc(Cl)cc1NS(=O)(=O)c1cc2ccccc2o1 [Compound 26, 2-({3-[(1-benzofuran-2-ylsulfonyl)amino]-5-chloropyridin-2-yl}oxy)benzoic acid] | 97% | 6.80 | – |
| COC(=O)c1ccccc1C[S+]([O-])c1ncccc1NS(=O)(=O)c1cc2ccccc2o1 (centres unmarked) [Compound 58, methyl 2-[({3-[(1-benzofuran-2-ylsulfonyl)amino]pyridin-2-yl}sulfinyl)methyl]benzoate] | 102% | 6.70 | – |
| O=S(=O)(Cc1ccccc1)c1ncc(Cl)cc1NS(=O)(=O)c1cc2ccccc2o1 [Compound 3, N-[2-(benzylsulfonyl)-5-chloropyridin-3-yl]-1-benzofuran-2-sulfonamide] | 90% | 7.72 | – |
| O=S(=O)(Nc1cc(Cl)cnc1SCc1ccccc1)c1cc2ccccc2o1 [Compound 1, N-[2-(benzylthio)-5-chloropyridin-3-yl]-1-benzofuran-2-sulfonamide] | 83% | 6.60 | – |
| COC(=O)c1ccccc1CS(=O)(=O)c1ncccc1NS(=O)(=O)c1cc2ccccc2o1 [Compound 60, methyl 2-[({3-[(1-benzofuran-2-ylsulfonyl)amino]pyridin-2-yl}sulfonyl)methyl]benzoate] | 101% | 7.07 | – |
| Cc1cnc(S(=O)(=O)c2ccccc2)c(NS(=O)(=O)c2cc3ccccc3o2)c1 [Compound 46, N-[5-methyl-2-(phenylsulfonyl)pyridin-3-yl]-1-benzofuran-2-sulfonamide] | 57% | 5.84 | – |
| COC(=O)c1ccccc1C[S+]([O-])c1ncc(Cl)cc1NS(=O)(=O)c1cc2ccccc2o1 (centres unmarked) [Compound 37, methyl 2-[({3-[(1-benzofuran-2-ylsulfonyl)amino]-5-chloropyridin-2-yl}sulfinyl)methyl]benzoate] | 95% | 6.72 | – |
| Nc1cccc(CS(=O)(=O)c2ncc(Cl)cc2NS(=O)(=O)c2cc3ccccc3o2)c1 [Compound 20, N-(2-((3-aminobenzyl)sulfonyl)-5-chloropyridin-3-yl)benzofuran-2-sulfonamide] | 100% | 6.85 | – |
| O=S(=O)(Cc1ccc[n+]([O-])c1)c1ncc(Cl)cc1NS(=O)(=O)c1cc2ccccc2o1 [Compound 7, N-(5-chloro-2-{[(1-oxidopyridin-3-yl)methyl]sulfonyl}pyridin-3-yl)-1-benzofuran-2-sulfonamide] | 100% | 6.89 | – |
| COC(=O)c1ccccc1CSc1ncccc1NS(=O)(=O)c1cc2ccccc2o1 [Compound 56, methyl 2-[({3-[(1-benzofuran-2-ylsulfonyl)amino]pyridin-2-yl}sulfanyl)methyl]benzoate] | 92% | 5.76 | – |

Reference: US8815915B2, “Benzofuran-2-sulfonamides pyridine derivatives as chemokine receptor modulators” (Allergan, Inc., priority 2012, dated 2014)
